Test results taken from PubChem BioAssay AID1963844 (Molecular Pharmacology Branch, DTP, NCI, 2024).

Tested on: 422866-222-R5-J1-PDC complex spheroid viability
Assay: Anticancer human tumor 422866-222-R5-J1-PDC patient-derived pancreatic adenocarcinoma cell line growth inhibition [POLQ]
Details: for IC50: curve of first compound; for viability, T/C: stronger effect = lower value
Summary of the method: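 Complex spheroid viability model combining PDC tumour cells with endothelial (HUVEC) and MSC stromal cells. Novobiocin, ART-558 or RP6685 were tested singly and in combination with standard and investigational anticancer drugs. Each was titrated in half-log steps from near clinical Cmax, or from 10 microM where Cmax was unknown.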

[1] = second compound 0.0316 µM, first compound 0.0316 µM
[2] = second compound 0.0316 µM, first compound 0.1 µM
[3] = second compound 0.0316 µM, first compound 0.316 µM
[4] = second compound 0.0316 µM, first compound 1 µM
[5] = second compound 0.0316 µM, first compound 3.16 µM
[6] = second compound 0.0316 µM, first compound 10 µM
[7] = second compound 0.1 µM, first compound 0.0316 µM
[8] = second compound 0.1 µM, first compound 0.1 µM
[9] = second compound 0.1 µM, first compound 0.316 µM
[10] = second compound 0.1 µM, first compound 1 µM
[11] = second compound 0.1 µM, first compound 3.16 µM
[12] = second compound 0.1 µM, first compound 10 µM
[13] = second compound 0.316 µM, first compound 0.0316 µM
[14] = second compound 0.316 µM, first compound 0.1 µM
[15] = second compound 0.316 µM, first compound 0.316 µM
[16] = second compound 0.316 µM, first compound 1 µM
[17] = second compound 0.316 µM, first compound 3.16 µM
[18] = second compound 0.316 µM, first compound 10 µM
[19] = second compound 1 µM, first compound 0.0316 µM
[20] = second compound 1 µM, first compound 0.1 µM
[21] = second compound 1 µM, first compound 0.316 µM
[22] = second compound 1 µM, first compound 1 µM
[23] = second compound 1 µM, first compound 3.16 µM
[24] = second compound 1 µM, first compound 10 µM
[25] = second compound 3.16 µM, first compound 0.0316 µM
[26] = second compound 3.16 µM, first compound 0.1 µM
[27] = second compound 3.16 µM, first compound 0.316 µM
[28] = second compound 3.16 µM, first compound 1 µM
[29] = second compound 3.16 µM, first compound 3.16 µM
[30] = second compound 3.16 µM, first compound 10 µM
[31] = second compound 10 µM, first compound 0.0316 µM
[32] = second compound 10 µM, first compound 0.1 µM
[33] = second compound 10 µM, first compound 0.316 µM
[34] = second compound 10 µM, first compound 1 µM
[35] = second compound 10 µM, first compound 3.16 µM
[36] = second compound 10 µM, first compound 10 µM
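Also: spheroids exposed to compounds for one week before readout.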
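For viability, T/C in this document: percent of DMSO vehicle wells luminescence so 100% = untreated viability.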

Compound: CC1COCCN1c1cc(-c2ccnn2C)c2ccnc(-c3ccn[nH]3)c2n1 (stereo not given) + COC1C(OC(N)=O)C(O)C(Oc2ccc3c(O)c(NC(=O)c4ccc(O)c(CC=C(C)C)c4)c(=O)oc3c2C)OC1(C)C
- IC50 (second compound 0.0316 µM): > 10000 nM
- IC50 (second compound 0.1 µM): > 10000 nM
- IC50 (second compound 0.316 µM): > 10000 nM
- IC50 (second compound 1 µM): > 10000 nM
- IC50 (second compound 3.16 µM): > 10000 nM
- IC50 (second compound 10 µM): > 10000 nM
- viability, T/C [1]: 87.7%
- viability, T/C [2]: 62%
- viability, T/C [3]: 42.2%
- viability, T/C [4]: 40%
- viability, T/C [5]: 85.1%
- viability, T/C [6]: 67.3%
- viability, T/C [7]: 90.1%
- viability, T/C [8]: 52.9%
- viability, T/C [9]: 39.8%
- viability, T/C [10]: 46.1%
- viability, T/C [11]: 87.3%
- viability, T/C [12]: 79.7%
- viability, T/C [13]: 96.5%
- viability, T/C [14]: 51.9%
- viability, T/C [15]: 35.3%
- viability, T/C [16]: 39%
- viability, T/C [17]: 88.5%
- viability, T/C [18]: 77%
- viability, T/C [19]: 77.5%
- viability, T/C [20]: 58.1%
- viability, T/C [21]: 43.3%
- viability, T/C [22]: 34.5%
- viability, T/C [23]: 77.9%
- viability, T/C [24]: 63.5%
- viability, T/C [25]: 82.6%
- viability, T/C [26]: 64.6%
- viability, T/C [27]: 39.9%
- viability, T/C [28]: 32%
- viability, T/C [29]: 88.1%
- viability, T/C [30]: 78.4%
- viability, T/C [31]: 82.7%
- viability, T/C [32]: 55.2%
- viability, T/C [33]: 46.2%
- viability, T/C [34]: 33.2%
- viability, T/C [35]: 81.1%
- viability, T/C [36]: 71.7%

Compound: CC1COCCN1c1cc(C2(S(C)(=N)=O)CC2)nc(-c2ccnc3[nH]ccc23)n1 (stereo not given) + COC1C(OC(N)=O)C(O)C(Oc2ccc3c(O)c(NC(=O)c4ccc(O)c(CC=C(C)C)c4)c(=O)oc3c2C)OC1(C)C
- IC50 (second compound 0.0316 µM): 2670 nM
- IC50 (second compound 0.1 µM): 2910 nM
- IC50 (second compound 0.316 µM): 2830 nM
- IC50 (second compound 1 µM): 2940 nM
- IC50 (second compound 3.16 µM): 2560 nM
- IC50 (second compound 10 µM): 4120 nM
- viability, T/C [1]: 102%
- viability, T/C [2]: 111%
- viability, T/C [3]: 88.4%
- viability, T/C [4]: 75.6%
- viability, T/C [5]: 43.9%
- viability, T/C [6]: 34.1%
- viability, T/C [7]: 104%
- viability, T/C [8]: 103%
- viability, T/C [9]: 91.6%
- viability, T/C [10]: 75.4%
- viability, T/C [11]: 46.6%
- viability, T/C [12]: 34.8%
- viability, T/C [13]: 95.8%
- viability, T/C [14]: 91%
- viability, T/C [15]: 92.5%
- viability, T/C [16]: 71.8%
- viability, T/C [17]: 48%
- viability, T/C [18]: 44.1%
- viability, T/C [19]: 91.3%
- viability, T/C [20]: 97.7%
- viability, T/C [21]: 101%
- viability, T/C [22]: 69.4%
- viability, T/C [23]: 54.9%
- viability, T/C [24]: 39.8%
- viability, T/C [25]: 107%
- viability, T/C [26]: 99%
- viability, T/C [27]: 104%
- viability, T/C [28]: 77.7%
- viability, T/C [29]: 44.4%
- viability, T/C [30]: 39.8%
- viability, T/C [31]: 97.1%
- viability, T/C [32]: 99.5%
- viability, T/C [33]: 112%
- viability, T/C [34]: 75.5%
- viability, T/C [35]: 58.7%
- viability, T/C [36]: 33%

Compound: CCCS(=O)(=O)Nc1ccc(F)c(C(=O)c2c[nH]c3ncc(-c4ccc(Cl)cc4)cc23)c1F + COC1C(OC(N)=O)C(O)C(Oc2ccc3c(O)c(NC(=O)c4ccc(O)c(CC=C(C)C)c4)c(=O)oc3c2C)OC1(C)C
- IC50 (second compound 0.0316 µM): > 10000 nM
- IC50 (second compound 0.1 µM): > 10000 nM
- IC50 (second compound 0.316 µM): > 10000 nM
- IC50 (second compound 1 µM): > 10000 nM
- IC50 (second compound 3.16 µM): > 10000 nM
- IC50 (second compound 10 µM): > 10000 nM
- viability, T/C [1]: 96.1%
- viability, T/C [2]: 129%
- viability, T/C [3]: 132%
- viability, T/C [4]: 162%
- viability, T/C [5]: 236%
- viability, T/C [6]: 99%
- viability, T/C [7]: 119%
- viability, T/C [8]: 118%
- viability, T/C [9]: 143%
- viability, T/C [10]: 149%
- viability, T/C [11]: 198%
- viability, T/C [12]: 86.6%
- viability, T/C [13]: 98.2%
- viability, T/C [14]: 97.8%
- viability, T/C [15]: 129%
- viability, T/C [16]: 177%
- viability, T/C [17]: 173%
- viability, T/C [18]: 107%
- viability, T/C [19]: 101%
- viability, T/C [20]: 114%
- viability, T/C [21]: 129%
- viability, T/C [22]: 167%
- viability, T/C [23]: 217%
- viability, T/C [24]: 90.6%
- viability, T/C [25]: 101%
- viability, T/C [26]: 115%
- viability, T/C [27]: 129%
- viability, T/C [28]: 173%
- viability, T/C [29]: 195%
- viability, T/C [30]: 111%
- viability, T/C [31]: 93.9%
- viability, T/C [32]: 121%
- viability, T/C [33]: 145%
- viability, T/C [34]: 161%
- viability, T/C [35]: 198%
- viability, T/C [36]: 93.4%

Compound: CNCc1ccc(-c2[nH]c3cc(F)cc4c3c2CCNC4=O)cc1 + COC1C(OC(N)=O)C(O)C(Oc2ccc3c(O)c(NC(=O)c4ccc(O)c(CC=C(C)C)c4)c(=O)oc3c2C)OC1(C)C
- IC50 (second compound 0.0316 µM): > 10000 nM
- IC50 (second compound 0.1 µM): > 10000 nM
- IC50 (second compound 0.316 µM): > 10000 nM
- IC50 (second compound 1 µM): > 10000 nM
- IC50 (second compound 3.16 µM): > 10000 nM
- IC50 (second compound 10 µM): > 10000 nM
- viability, T/C [1]: 96.6%
- viability, T/C [2]: 97.2%
- viability, T/C [3]: 75.3%
- viability, T/C [4]: 97.3%
- viability, T/C [5]: 83.4%
- viability, T/C [6]: 105%
- viability, T/C [7]: 124%
- viability, T/C [8]: 109%
- viability, T/C [9]: 104%
- viability, T/C [10]: 99.1%
- viability, T/C [11]: 76.7%
- viability, T/C [12]: 95%
- viability, T/C [13]: 99.5%
- viability, T/C [14]: 101%
- viability, T/C [15]: 98.2%
- viability, T/C [16]: 83%
- viability, T/C [17]: 92%
- viability, T/C [18]: 95.1%
- viability, T/C [19]: 116%
- viability, T/C [20]: 104%
- viability, T/C [21]: 101%
- viability, T/C [22]: 92.9%
- viability, T/C [23]: 96.8%
- viability, T/C [24]: 99%
- viability, T/C [25]: 93%
- viability, T/C [26]: 101%
- viability, T/C [27]: 92.9%
- viability, T/C [28]: 71.7%
- viability, T/C [29]: 83.5%
- viability, T/C [30]: 99%
- viability, T/C [31]: 96.8%
- viability, T/C [32]: 102%
- viability, T/C [33]: 100%
- viability, T/C [34]: 90%
- viability, T/C [35]: 103%
- viability, T/C [36]: 90.2%

Compound: COc1ccc([C@@H](O)c2cc(-c3ncnc4cc(N5CCOCC5)ccc34)c(F)cc2Cl)nn1 + COC1C(OC(N)=O)C(O)C(Oc2ccc3c(O)c(NC(=O)c4ccc(O)c(CC=C(C)C)c4)c(=O)oc3c2C)OC1(C)C
- IC50 (second compound 0.0316 µM): 2650 nM
- IC50 (second compound 0.1 µM): 1980 nM
- IC50 (second compound 0.316 µM): 2190 nM
- IC50 (second compound 1 µM): 2910 nM
- IC50 (second compound 3.16 µM): 2360 nM
- IC50 (second compound 10 µM): 1940 nM
- viability, T/C [1]: 96.4%
- viability, T/C [2]: 96%
- viability, T/C [3]: 76.5%
- viability, T/C [4]: 67.2%
- viability, T/C [5]: 44.6%
- viability, T/C [6]: 40.5%
- viability, T/C [7]: 101%
- viability, T/C [8]: 100%
- viability, T/C [9]: 93.3%
- viability, T/C [10]: 60%
- viability, T/C [11]: 45.5%
- viability, T/C [12]: 37.4%
- viability, T/C [13]: 88.5%
- viability, T/C [14]: 94.9%
- viability, T/C [15]: 82.8%
- viability, T/C [16]: 61.7%
- viability, T/C [17]: 41.2%
- viability, T/C [18]: 46.5%
- viability, T/C [19]: 109%
- viability, T/C [20]: 102%
- viability, T/C [21]: 76%
- viability, T/C [22]: 67.5%
- viability, T/C [23]: 47.1%
- viability, T/C [24]: 40%
- viability, T/C [25]: 98.8%
- viability, T/C [26]: 99.5%
- viability, T/C [27]: 77.9%
- viability, T/C [28]: 62%
- viability, T/C [29]: 48.3%
- viability, T/C [30]: 30.4%
- viability, T/C [31]: 97.7%
- viability, T/C [32]: 99.5%
- viability, T/C [33]: 86.7%
- viability, T/C [34]: 58.7%
- viability, T/C [35]: 45.4%
- viability, T/C [36]: 37%
